pIC50: −log10 of the molar value. Where a name gives a salt, the structure may show the parent alone.
Legend:
trypsin = biological target: T1, trypsin (Bos taurus, UniProt P00760); test: Trypsin inhibitory activity; type: biochemical; conditions: pH 8.0, 37° C., substrate Boc-Phe-Ser-Arg-MCA; read-out: Concentration for 50% inhibition, trypsin
T1 sequence (P00760 24-246): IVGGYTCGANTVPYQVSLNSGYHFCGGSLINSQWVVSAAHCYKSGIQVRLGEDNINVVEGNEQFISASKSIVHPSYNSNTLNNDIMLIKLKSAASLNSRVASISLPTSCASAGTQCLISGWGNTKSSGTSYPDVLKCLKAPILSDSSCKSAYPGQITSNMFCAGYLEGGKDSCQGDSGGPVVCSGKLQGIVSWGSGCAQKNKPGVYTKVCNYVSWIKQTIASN
Procedure: To 0.1 ml of a dimethylsulfoxide solution of a compound to be tested were added 0.3 ml of a 0.1M trishydrochloric acid buffer solution (pH 8.0) containing 10 mM of calcium chloride and 0.1 ml of a solution of 50 ng/ml of trypsin dissolved in the buffer solution, followed by incubation at 37° C. and 10 minutes. Thereafter, 5 microliters of a dimethylformamide solution of 10 mM Boc-Phe-Ser-Arg-MCA, followed by reaction at 37° C. for 30 minutes and addition of 0.5 ml of a 10% acetic acid solution to stop the reaction. The fluorecence of produced 7-amino-4-methylcumarin was measured by the use of a fluorometer (Fluorometer 650-40, by Hitachi Ltd.) under conditions of an excitation wavelength of 380 nm, a wavelength of the fluorescence of 460 nm and a slit width of 2 mm.
The inhibition rate of the respective compounds to be tested was calculated according to the following equation. [formula] in which T represents a measured value of "test specimen+enzyme+substrate", E represents a measured value of "enzyme+substrate", and S represents a measured value of "substrate".

thrombin = thrombin (Homo sapiens, UniProt P00734); test: Thrombin inhibitory activity; type: biochemical; conditions: pH 7.4, 37° C., substrate Boc-Val-Pro-Arg-MCA; read-out: Concentration for 50% inhibition, thrombin
Procedure: To 0.1 ml of a dimethylsulfoxide solution of each of compounds to be tested were added 0.3 ml of a 0.1M phosphate buffer solution (pH 7.4) and 0.1 ml of a thrombin solution containing 100 mu/ml of thrombin in the buffer solution, followed by incubation at 37° C. for 10 minutes. To the solution was added […] of dimethylformamide solution of 10 mM Boc-Val-Pro-Arg-MCA for reaction at 37° C. for 30 minutes. Thereafter, the inhibition rate was calculated similar to the case of trypsin.

rat's blood = test: Anticoagulant activity (blood coagulation time by thrombelastograph); conditions: compound 1×10^-4 M, thrombelastogram
Procedure: A compound to be tested was dissolved into a physiological saline solution so as to have the final concentration of 1×10^-4 M and then cooled down by ice. A 0.05 ml of the thus prepared solution was added with 0.5 ml of rat's blood, followed by subjecting the obtained solution to a thrombelastograph (manufactured by Hellige Company). The blood coagulation time (r+k value) was determined by the obtained thrombelastogram.

[1] = Acute toxicity (LD50), intravenous administration to mice; conditions: mouse, in vivo
Solubility = type: physicochemical; conditions: pH 3.57

Compound | pIC50 (trypsin) | pIC50 (thrombin) | Blood coagulation time (r+k value) (rat's blood) [min] | LD50 [1] [mg/kg] | solubility (Solubility) [mg/mL]
N=C(N)Nc1ccc(C(=O)Oc2ccc(C(=O)N3CCN(CC(N)=O)CC3)cc2)cc1 [Example 2, 4-[4-(carbamoylmethyl)piperazinocarbonyl]phenyl 4-guanidinobenzoate.dihydrochloride] | 7.70 | 6.70 | 26.7 ± 3.3 | 150 to 200 | > 100
N=C(N)Nc1ccc(C(=O)Oc2ccc(C(=O)N3CCN(CC(=O)N4CCOCC4)CC3)cc2)cc1 [Example 6, 4-[4-(Morpholynocarbonylmethyl)piperazinocarbonyl]phenyl 4-guanidinobenzoate.dihydrochloride] | 8.22 | 6.40 | 15.3 ± 3.1 | 150 to 200 | –
N=C(N)Nc1ccc(C(=O)Oc2ccc(C(=O)N3CCN(CC(=O)N4CCCC4)CC3)cc2)cc1 [Example 7, 4-[4-(Pyrrolidinocarbonylmethyl)piperazino-carbonyl]phenyl 4-guanidinobenzoate.dihydrochloride] | 8.15 | 6.40 | 9.7 ± 0.3 | 100 to 150 | –
CC(C)NC(=O)CN1CCN(C(=O)c2ccc(OC(=O)c3ccc(NC(=N)N)cc3)cc2)CC1 [Example 9, 4-[4-(Isopropylcarbamoylmethyl)piperazinocarbonyl]phenyl 4-guanidinobenzoate.dihydrochloride] | 8.00 | 6.40 | 18.5 | 150 to 200 | –
CCOC(=O)CN1CCN(C(=O)c2ccc(OC(=O)c3ccc(NC(=N)N)cc3)cc2)CC1 [Example 10, 4-[4-(Ethoxycarbonylmethyl)piperazinocarbonyl]phenyl 4-guanidinobenzoate.dihydrochloride] | 7.70 | 6.40 | 10 | 150 to 200 | –
COc1cc(C(=O)N2CCN(C(C)C)CC2)cc(OC)c1OC(=O)c1ccc(NC(=N)N)cc1 [Example 11, 4-(4-Isopropylpiperazinocarbonyl)-3,5-dimethoxyphenyl 4-gunanidinobenzoate.dihydrochloride] | 6.40 | – | – | 50 to 100 | –
N=C(N)Nc1ccc(C(=O)Oc2ccc(C(=O)N3CCN(CC(=O)N4CCCCC4)CC3)cc2)cc1 [Example 12, 4-[4-(Piperidinocarbonylmethyl)piperazinocarbonyl]phenyl 4-guanidinobenzoate.dihydrochloride] | 8.00 | – | 14.5 | 100 to 150 | –
CC(C)N1CCN(C(=O)c2ccc(OC(=O)c3ccc(NC(=N)N)cc3)cc2)CC1 [Example 13, 4-(4-Isopropylpiperazinocarbonyl)phenyl 4-guanidinobenzoate.dihydrochloride] | 7.70 | – | 21 ± 3.9 | 50 to 100 | –
CC(C(=O)NCCN(C)C)N1CCN(C(=O)c2ccc(OC(=O)c3ccc(NC(=N)N)cc3)cc2)CC1 (centres unmarked) [Example 22, 4-[4-[1-(2-Dimethylaminoethylcarbamoyl)ethyl]piperazinocarbonyl]phenyl 4-guanidinobenzoate.trihydrochloride] | 7.40 | – | 20.5 ± 0.8 | – | –
N=C(N)Nc1ccc(C(=O)Oc2ccc(C(=O)N3CCN(CCNC(=O)OCc4ccccc4)CC3)cc2)cc1 [Example 25, 4-[4-(2-Benzyloxycarbonylaminoethyl)piperazinocarbonyl]phenyl 4-guanidinobenzoate.dihydrochloride] | 7.70 | – | 18.8 ± 1.2 | – | –
N=C(N)Nc1ccc(C(=O)Oc2ccc(C(=O)N3CCN(CC(=O)O)CC3)cc2)cc1 [Example 27, 4-[4-(Guanidinobenzoyloxy)benzoyl]piperazino-acetic acid:dihydrochloride] | 7.40 | – | 19.2 ± 2.3 | – | –
N=C(N)Nc1ccc(C(=O)Oc2ccc(C(=O)N3CCNCC3)cc2)cc1 [Example 29, 4-Piperazinocarbonylphenyl 4-guanidinobenzoate.dihydrochloride] | 7.52 | – | 34.8 ± 5.5 | – | –
CN1CCN(C(=O)c2ccc(OC(=O)c3ccc(NC(=N)N)cc3)cc2)CC1 [Example 30, 4-(4-Methylpiperazinocarbonyl)phenyl 4-guanidinobenzoate.dihydrochloride] | 7.52 | – | 16.5 ± 1.6 | – | –
N=C(N)Nc1ccc(C(=O)Oc2ccc(C(=O)N3CCCN(CC(N)=O)CC3)cc2)cc1 [Example 33, 4-(4-Carbamoylmethylhomopiperazinocarbonyl)phenyl 4-guanidinobenzoate.dihydrochloride] | 7.70 | – | 32 ± 2.5 | – | –
CN(C)CCNC(=O)c1ccc(OC(=O)c2ccc(NC(=N)N)cc2)cc1 [Example 34, 4-(N,N-Dimethylethylenediaminocarbonyl)phenyl 4-guanidinobenzoate.dihydrochloride] | 8.00 | – | 41.3 ± 3.9 | – | –
CN(C)CCN(C)C(=O)c1ccc(OC(=O)c2ccc(NC(=N)N)cc2)cc1 [Example 37, 4-(N,N,N'-Trimethylethylenediaminocarbonyl)phenyl 4-guanidinobenzoate.dihydrochloride] | 7.40 | – | 46.5 ± 4.5 | – | –
CN(CCN(C)C(=O)c1ccc(OC(=O)c2ccc(NC(=N)N)cc2)cc1)CC(N)=O [Example 38, 4-[(N-Carbamoylmethyl-N,N'-dimethylethylenediamino)carbonyl]phenyl 4-guanidinobenzoate.dihydrochloride] | 7.52 | – | 34.2 ± 1.6 | – | –
CN(C)C(=O)COC(=O)Cc1ccc(OC(=O)c2ccc(NC(=N)N)cc2)cc1 [Reference compound A, reference compound] | 7.30 | – | 9.8 ± 0.6 | 280 | –
CCOC(=O)c1ccc(OC(=O)CCCCCNC(=N)N)cc1 [Reference compound B, reference compound] | 6.40 | – | 9.8 ± 1.6 | 313 | –
